In US20120029167A1, “AUTO MAGNETIC METAL SALEN COMPLEX COMPOUND” (Yoshihiro Ishikawa, priority 2008, published 2012):

Tests used:
[1] = 37° C. (310K) magnetic field-magnetization curve using MPMS7 (Quantum Design); assay type: physicochemical; conditions: for magnetic field at which magnetization is greater in comparison to the Fe-salen / magnetic properties from magnetic field-magnetization curve: 37° C. (310K); for magnetization compared among Fe-, Mn-, Cr-, Co-salen: magnetic field 10000 Oe (1 T) or more
Experimental: As a result of measuring the 37° C.
The summary of the results of the 37° C. (310K) magnetic field-magnetization curve of the Fe-salen complex, the Mn-salen complex, the Cr-salen complex, and the Co-salen complex is shown in FIG. 4.
In comparison to the Fe-salen, the Co-salen yields greater magnetization at a magnetic field of 10000 Oe (1 T (tesla)) or more. In comparison to the Fe-salen, the Mn-salen yields greater magnetization at a magnetic field of 30000 Oe (3 T (tesla)) or more.
Nevertheless, if the magnetic field is 10000 Oe (1 T (tesla)) or more, the magnetization of the Co-salen and Mn-salen complex is the greatest and is optimal for a magnetic field drug delivery system which uses a superconducting magnet.

[2] = test system: rat L6 cells; experiment: Rat L6 cell culture in square flask with magnet, number of cells after 48 hours; assay type: cell-based; conditions: powder sprinkled on culture medium, L6 cells confluent at 30%, bar magnet
Experimental: The respective metal salen complex powders of the Fe-salen complex, the Mn-salen complex, the Cr-salen complex, and the Co-salen complex obtained with the foregoing method were sprinkled on a culture medium in an amount that where such powder can be visually confirmed to be drawn to the magnet in a state where the rat L6 cells are confluent at 30%, and a photograph of the state of the culture medium after 48 hours was taken.
Subsequently, a photograph was taken from one end to the other end of the bottom face of the square flask after 48 hours, and the results of calculating the number of cells are shown in FIG. 6. […]
Shown is a state where the bar magnet was caused to come in contact with a square flask as the culture medium of the rat L6 cells. Subsequently, a photograph was taken from one end to the other end of the bottom face of the square flask after 48 hours, and the number of cells was calculated. […]
Shown is a state where the bar magnet was caused to come in contact with a square flask as the culture medium of the rat L6 cells. Subsequently, a photograph was taken from one end to the other end of the bottom face of the square flask after 48 hours, and the number of cells was calculated.

Row | magnetic field at which magnetization is greater in comparison to the Fe-salen [1] [Oe] | magnetic properties from magnetic field-magnetization curve [1] | magnetization compared among Fe-, Mn-, Cr-, Co-salen [1] | Structure (SMILES) | number of cells proximal from the magnet versus distal [2]
1 | ≥ 30000 | paramagnetic properties were observed | the greatest | Oc1ccccc1C=NCCN=Cc1ccccc1O.[Mn] [Mn-salen complex] | number of cells is extremely lower than the distal
2 | ≥ 10000 | paramagnetic properties were observed | the greatest | [Co+2].[O-]c1ccccc1C=NCCN=Cc1ccccc1[O-] [Co-salen complex] | –
3 | – | paramagnetic properties were observed | – | [Cr+2].[O-]c1ccccc1C=NCCN=Cc1ccccc1[O-] [Cr-salen complex] | –
